Entries after “also recorded” stand apart in the source; their conditions may differ.
Assays:
[1] = system: inositol phosphate levels in U251-MG cells; assay: 3H-inositol metabolic labeling and HPLC of inositol phosphates; assay type: cell-based, human; conditions: 10 μM, vs DMSO
Protocol: Human U251-MG glioblastoma cells (ECACC 09063001) were grown in DMEM supplemented with 10% FBS. The medium was changed to inositol-free DMEM, and cells were inositol-starved for 1–3 days. Cells were maintained in inositol-free DMEM medium, treated with the indicated inhibitor or DMSO for 1–2.5 h, and supplemented with 100 μCi ^3H-inositol (PerkinElmer) for 48 or 72 h, as indicated on each figure. Cells were then washed in PBS and lysed in 200 μL HCl (0.5 M), 250 μL of MeOH was added to each well of a 6-well plate (approximately 10^6 cells), followed by 125 μL of 2 M KCl. Lysates were scraped and sonicated on ice for three 1 min cycles. Inositol phosphate (IP) extracts were cleaned of lipids by adding 250 μL of CHCl3, vortexing and centrifuging samples for 2 min at 5000 rpm to separate upper aqueous and lower organic phases, upper phase contains soluble IPs. This extraction was repeated once. Samples were dried in a SpeedVac, resuspended in 10 mM ammonium phosphate (pH= 3.5), and filtered. HPLC separation and detection of the inositol species on the upper phase used a Partisphere SAX 4.6 mm × 250 mm column, eluted with 10 mM (buffer A) to 1.3 M (buffer B) ammonium phosphate (pH = 3.8) and online flow scintillation analyzer (FSA, PerkinElmer). Elution of [^32P]-labeled IP4, IP5, and IP6 standards confirmed the identity of each peak off the HPLC. Quantification represents three biologically independent metabolic labeling samples with error representing the standard deviation of the mean.

[2] = system: AKT phosphorylation in U251-MG glioblastoma cells; assay: Western blots of phospho-AKT; assay type: cell-based, human; design: key to AKT P-Thr-308 signal intensity compared to DMSO / AKT P-Ser-473 signal intensity compared to DMSO: ns= not si gni fi cant by unpai r ed t -test
Protocol: About 3.5 × 10^6 U251 cells were seeded in 15 cm plates containing 30 mL of DMEM supplemented with 4.5 g/L D-glucose, L-glutamine, 10% FBS, 1% nonessential amino acids, and 1% penicillin–streptomycin (all from Thermo Fisher). […] Protein concentration was equalized using a Bradford assay, and samples were run on SDS-PAGE at 150 V for 1 h. Protein transfer was performed at 20 V for 1 h, membranes were blocked with 7 mL of EveryBlot blocking buffer (Bio-Rad) for 10 min. Primary antibodies used were AKT (#9272), Actin (#3700), and phospho-AKT (Ser473, #4060) at a 1:1000 dilution in EveryBlot blocking buffer, and phospho-AKT (Thr308, #13038) at a 1:400 dilution; all antibodies were from Cell Signaling Technology. After overnight incubation at 4 °C, membranes were washed and incubated with secondary antibodies (1:10,000 dilution for AKT, Actin, and P-AKT Ser473; 1:4000 for P-AKT Thr308) for 1 h. Detection was performed using Clarity Western ECL substrate (Bio-Rad) according to the manufacturer’s instructions and imaged using the Bio-Rad ChemiDoc system.

AKT1 = molecular target: T1, AKT1 (Homo sapiens, UniProt P31749); assay: Protein kinase profiling, Mobility Shift Assay (Carna Biosciences); assay type: biochemical; conditions: read-out: % Inhibition at 1.0 μM 14
T1 construct: purchased Carna Biosciences
Protocol: (§1) Protein kinase profiling of compound 14 was executed by Carna Biosciences. Briefly, compound 14 was prepared by dissolving it in dimethyl sulfoxide (DMSO) and then further diluting it in DMSO to a concentration of […]. That stock solution was further diluted 25-fold with kinase assay buffer (20 mM HEPES, 0.01% Triton X-100, 2 mM DTT, pH 7.5) to make the final 1 μM compound 14 solution. Reference compounds for the assay controls were prepared similarly. The off-chip Mobility Shift Assay (MSA) was prepared with 5 μL of 4× compound solution, 5 μL of 4× substrate/ATP/metal solution, and 10 μL of 2× kinase solution, prepared with assay buffer (20 mM HEPES, 0.01% Triton X-100, 2 mM DTT, pH 7.5). The components were mixed and incubated in a polypropylene 384-well microplate for 1 h or 5 h at room temperature, depending on the kinase being tested. 60 μL of termination buffer (QuickScout Screening Assist MSA; Carna Biosciences) was added to the well to stop the reactions, and the mixture was applied to a LabChip3000 system (Caliper Life Sciences. The product and substrate peptide peaks were separated and quantitated. The kinase reactions were evaluated by the product ratio, calculated from the peak heights of the product (P) and substrate (S) peptides (P/(P + S)). Product ratio values for the control reaction were set as 0% inhibition, and the readout value of the background (no kinase added) was set as 100% inhibition. The percent inhibition of each test solution was then calculated as reported in Figure A. The phylogenetic tree was generated using KinMap at https://bmcbioinformatics.biomedcentral.com/articles/10.1186/s12859-016-1433-7.

CDK2 = molecular target: T2, CDK2 (Homo sapiens, UniProt P24941); assay: as above; assay type: biochemical; conditions: read-out: % Inhibition at 1.0 μM 14
T2 construct: purchased Carna Biosciences
Protocol: as §1

CaMK4 = molecular target: T3, CaMK4 (Homo sapiens, UniProt Q16566); assay: as above; assay type: biochemical; conditions: read-out: % Inhibition at 1.0 μM 14
T3 construct: purchased Carna Biosciences
Protocol: as §1

Erk2 = molecular target: T4, Erk2 (Homo sapiens, UniProt P28482); assay: as above; assay type: biochemical; conditions: read-out: % Inhibition at 1.0 μM 14
T4 construct: purchased Carna Biosciences
Protocol: as §1

FGFR1 = molecular target: T5, FGFR1 (Homo sapiens, UniProt P11362); assay: as above; assay type: biochemical; conditions: read-out: % Inhibition at 1.0 μM 14
T5 construct: purchased Carna Biosciences
Protocol: as §1

JNK2 = molecular target: T6, JNK2 (Homo sapiens, UniProt P45984); assay: as above; assay type: biochemical; conditions: read-out: % Inhibition at 1.0 μM 14
T6 construct: purchased Carna Biosciences
Protocol: as §1

KDR = molecular target: T7, KDR (Homo sapiens, UniProt P35968); assay: as above; assay type: biochemical; conditions: read-out: % Inhibition at 1.0 μM 14
T7 construct: purchased Carna Biosciences
Protocol: as §1

MST1 = molecular target: T8, MST1 (Homo sapiens, UniProt Q13043); assay: as above; assay type: biochemical; conditions: read-out: % Inhibition at 1.0 μM 14
T8 construct: purchased Carna Biosciences
Protocol: as §1

ROCK1 = molecular target: T9, ROCK1 (Homo sapiens, UniProt Q13464); assay: as above; assay type: biochemical; conditions: read-out: % Inhibition at 1.0 μM 14
T9 construct: purchased Carna Biosciences
Protocol: as §1

SRC = molecular target: T10, SRC (Homo sapiens, UniProt P12931); assay: as above; assay type: biochemical; conditions: read-out: % Inhibition at 1.0 μM 14
T10 construct: purchased Carna Biosciences
Protocol: as §1

SYK = molecular target: T11, SYK (Homo sapiens, UniProt P43405); assay: as above; assay type: biochemical; conditions: read-out: % Inhibition at 1.0 μM 14
T11 construct: purchased Carna Biosciences
Protocol: as §1

TRKA = molecular target: T12, TRKA (Homo sapiens, UniProt P04629); assay: as above; assay type: biochemical; conditions: read-out: % Inhibition at 1.0 μM 14
T12 construct: purchased Carna Biosciences
Protocol: as §1

T12 sequence (P04629 33-796): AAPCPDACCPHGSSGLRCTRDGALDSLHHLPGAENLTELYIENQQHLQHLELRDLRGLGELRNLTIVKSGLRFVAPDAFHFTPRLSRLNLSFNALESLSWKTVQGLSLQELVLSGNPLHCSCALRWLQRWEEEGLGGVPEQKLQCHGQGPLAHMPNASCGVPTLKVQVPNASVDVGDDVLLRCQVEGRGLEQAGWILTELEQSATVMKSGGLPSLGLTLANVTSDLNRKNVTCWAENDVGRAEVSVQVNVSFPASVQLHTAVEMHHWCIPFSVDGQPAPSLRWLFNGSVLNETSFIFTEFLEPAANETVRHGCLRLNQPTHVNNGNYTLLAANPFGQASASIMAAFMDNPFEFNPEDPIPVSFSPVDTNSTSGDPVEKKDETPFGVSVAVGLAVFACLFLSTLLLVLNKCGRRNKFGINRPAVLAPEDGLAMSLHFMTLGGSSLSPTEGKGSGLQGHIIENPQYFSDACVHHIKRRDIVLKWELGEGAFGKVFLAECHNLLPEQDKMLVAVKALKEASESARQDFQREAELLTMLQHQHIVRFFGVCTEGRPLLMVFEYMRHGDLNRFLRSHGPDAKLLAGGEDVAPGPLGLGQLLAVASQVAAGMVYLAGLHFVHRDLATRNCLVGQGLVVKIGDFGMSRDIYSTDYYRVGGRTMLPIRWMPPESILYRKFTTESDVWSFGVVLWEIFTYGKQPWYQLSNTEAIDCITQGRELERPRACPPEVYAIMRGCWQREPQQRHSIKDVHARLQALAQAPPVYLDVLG
T10 sequence (P12931 whole entry): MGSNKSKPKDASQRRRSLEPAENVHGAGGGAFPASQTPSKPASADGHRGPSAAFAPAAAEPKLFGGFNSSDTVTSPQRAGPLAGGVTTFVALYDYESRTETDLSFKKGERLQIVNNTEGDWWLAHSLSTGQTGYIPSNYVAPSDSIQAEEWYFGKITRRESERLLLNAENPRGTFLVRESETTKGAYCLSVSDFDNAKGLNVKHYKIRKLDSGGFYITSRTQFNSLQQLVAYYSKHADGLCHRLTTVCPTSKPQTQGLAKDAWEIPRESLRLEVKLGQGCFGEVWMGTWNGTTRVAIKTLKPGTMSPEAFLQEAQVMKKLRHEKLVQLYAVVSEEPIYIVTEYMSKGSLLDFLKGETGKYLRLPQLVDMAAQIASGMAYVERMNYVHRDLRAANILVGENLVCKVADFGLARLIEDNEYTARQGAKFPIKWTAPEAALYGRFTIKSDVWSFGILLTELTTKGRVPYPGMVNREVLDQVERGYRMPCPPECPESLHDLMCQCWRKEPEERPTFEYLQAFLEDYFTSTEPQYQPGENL
T5 sequence (P11362 22-822): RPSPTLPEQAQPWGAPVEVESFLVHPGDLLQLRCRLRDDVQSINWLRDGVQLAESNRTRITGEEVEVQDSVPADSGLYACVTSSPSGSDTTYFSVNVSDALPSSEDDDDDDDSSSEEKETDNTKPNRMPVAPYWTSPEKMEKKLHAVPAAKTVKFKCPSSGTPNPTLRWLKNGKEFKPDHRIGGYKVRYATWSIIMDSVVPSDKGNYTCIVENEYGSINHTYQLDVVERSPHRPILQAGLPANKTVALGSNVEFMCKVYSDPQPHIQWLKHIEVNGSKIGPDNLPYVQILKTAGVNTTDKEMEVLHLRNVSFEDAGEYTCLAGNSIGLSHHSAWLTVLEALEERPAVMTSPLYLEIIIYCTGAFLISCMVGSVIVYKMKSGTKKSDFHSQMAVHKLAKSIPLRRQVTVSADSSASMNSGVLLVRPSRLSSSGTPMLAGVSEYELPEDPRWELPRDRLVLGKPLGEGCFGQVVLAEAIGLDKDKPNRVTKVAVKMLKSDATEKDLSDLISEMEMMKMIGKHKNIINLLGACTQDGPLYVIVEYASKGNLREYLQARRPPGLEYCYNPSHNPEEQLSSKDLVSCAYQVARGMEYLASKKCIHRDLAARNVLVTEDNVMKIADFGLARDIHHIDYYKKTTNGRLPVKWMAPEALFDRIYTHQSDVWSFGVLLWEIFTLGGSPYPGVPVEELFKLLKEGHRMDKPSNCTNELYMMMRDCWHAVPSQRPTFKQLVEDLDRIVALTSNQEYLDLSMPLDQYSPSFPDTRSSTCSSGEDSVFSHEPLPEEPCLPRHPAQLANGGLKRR
T7 sequence (P35968 20-1356): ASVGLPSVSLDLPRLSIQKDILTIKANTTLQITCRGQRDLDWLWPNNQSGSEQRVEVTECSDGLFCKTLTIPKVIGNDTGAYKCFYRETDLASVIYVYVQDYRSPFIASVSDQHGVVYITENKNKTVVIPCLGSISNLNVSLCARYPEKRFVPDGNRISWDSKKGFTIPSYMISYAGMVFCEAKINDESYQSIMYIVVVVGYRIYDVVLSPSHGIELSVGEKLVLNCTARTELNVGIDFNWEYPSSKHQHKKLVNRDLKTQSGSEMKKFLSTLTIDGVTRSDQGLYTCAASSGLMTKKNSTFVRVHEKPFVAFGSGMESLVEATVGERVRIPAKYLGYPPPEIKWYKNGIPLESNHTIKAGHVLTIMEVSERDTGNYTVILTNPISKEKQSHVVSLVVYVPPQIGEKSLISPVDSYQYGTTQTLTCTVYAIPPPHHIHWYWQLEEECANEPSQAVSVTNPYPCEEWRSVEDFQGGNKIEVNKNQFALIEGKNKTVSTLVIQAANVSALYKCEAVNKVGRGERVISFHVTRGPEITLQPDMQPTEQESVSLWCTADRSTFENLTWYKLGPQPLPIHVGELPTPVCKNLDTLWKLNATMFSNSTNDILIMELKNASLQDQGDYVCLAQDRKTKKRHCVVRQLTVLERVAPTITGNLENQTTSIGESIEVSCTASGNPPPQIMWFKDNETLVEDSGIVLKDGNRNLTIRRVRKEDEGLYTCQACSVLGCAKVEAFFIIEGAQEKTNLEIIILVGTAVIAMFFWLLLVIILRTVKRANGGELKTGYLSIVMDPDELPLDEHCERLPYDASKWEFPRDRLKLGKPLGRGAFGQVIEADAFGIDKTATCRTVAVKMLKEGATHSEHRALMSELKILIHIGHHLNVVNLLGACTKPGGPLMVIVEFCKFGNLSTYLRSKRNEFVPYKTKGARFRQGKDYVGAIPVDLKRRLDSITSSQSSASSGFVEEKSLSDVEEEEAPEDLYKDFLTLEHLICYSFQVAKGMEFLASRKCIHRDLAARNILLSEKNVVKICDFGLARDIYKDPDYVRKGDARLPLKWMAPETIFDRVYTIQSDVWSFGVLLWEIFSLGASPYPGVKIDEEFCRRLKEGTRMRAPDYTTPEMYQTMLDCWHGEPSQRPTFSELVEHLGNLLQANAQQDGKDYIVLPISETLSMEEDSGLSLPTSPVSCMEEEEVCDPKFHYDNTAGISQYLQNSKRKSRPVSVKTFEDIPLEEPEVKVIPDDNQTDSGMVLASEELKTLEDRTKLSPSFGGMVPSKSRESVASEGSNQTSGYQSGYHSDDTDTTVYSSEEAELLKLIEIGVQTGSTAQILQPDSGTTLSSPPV
T6 sequence (P45984 whole entry): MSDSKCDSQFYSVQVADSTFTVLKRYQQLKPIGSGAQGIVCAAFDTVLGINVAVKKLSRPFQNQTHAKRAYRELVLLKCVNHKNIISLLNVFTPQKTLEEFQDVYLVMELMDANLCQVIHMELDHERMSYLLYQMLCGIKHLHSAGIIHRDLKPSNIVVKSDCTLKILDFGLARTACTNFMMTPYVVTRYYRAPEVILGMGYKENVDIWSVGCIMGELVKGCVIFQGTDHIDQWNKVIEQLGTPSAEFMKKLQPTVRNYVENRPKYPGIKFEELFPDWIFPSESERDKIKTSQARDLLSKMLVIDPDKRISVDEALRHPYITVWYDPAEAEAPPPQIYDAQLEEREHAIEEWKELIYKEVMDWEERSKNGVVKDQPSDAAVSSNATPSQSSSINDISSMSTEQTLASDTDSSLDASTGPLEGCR
T1 sequence (P31749 whole entry): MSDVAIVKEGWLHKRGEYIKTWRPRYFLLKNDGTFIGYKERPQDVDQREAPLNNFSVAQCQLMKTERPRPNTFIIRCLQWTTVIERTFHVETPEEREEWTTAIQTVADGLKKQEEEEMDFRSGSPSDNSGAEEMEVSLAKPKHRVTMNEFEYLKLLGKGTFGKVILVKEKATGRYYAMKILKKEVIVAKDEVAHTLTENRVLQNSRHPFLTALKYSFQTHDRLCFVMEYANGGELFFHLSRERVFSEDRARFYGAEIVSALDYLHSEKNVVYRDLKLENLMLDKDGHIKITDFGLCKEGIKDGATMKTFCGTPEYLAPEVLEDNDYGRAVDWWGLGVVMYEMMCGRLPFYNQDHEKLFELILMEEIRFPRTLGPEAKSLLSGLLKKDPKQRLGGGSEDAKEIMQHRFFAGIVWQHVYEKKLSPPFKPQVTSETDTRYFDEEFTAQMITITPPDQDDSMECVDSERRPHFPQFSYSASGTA
T4 sequence (P28482 whole entry): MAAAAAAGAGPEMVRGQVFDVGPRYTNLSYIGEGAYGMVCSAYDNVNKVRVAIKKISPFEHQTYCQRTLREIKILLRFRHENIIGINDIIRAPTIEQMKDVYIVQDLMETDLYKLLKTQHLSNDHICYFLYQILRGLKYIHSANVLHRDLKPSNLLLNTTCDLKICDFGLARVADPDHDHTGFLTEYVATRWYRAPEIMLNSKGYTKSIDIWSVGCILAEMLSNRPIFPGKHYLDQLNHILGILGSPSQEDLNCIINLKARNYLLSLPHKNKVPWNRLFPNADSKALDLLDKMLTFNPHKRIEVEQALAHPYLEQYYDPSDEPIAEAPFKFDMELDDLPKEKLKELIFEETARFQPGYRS

c1cc(-c2onc3ccc(-c4nnn[nH]4)cc23)cc(C2CCN(C3CCC3)CC2)c1 [Compound 14, 3-(3-(1-Cyclobutylpiperidin-4-yl)phenyl)-5-(1H-tetrazol-5-yl)benzo[c]isoxazole]
decrease of InsP5 levels ([1]; 48 h): 50% | increase of InsP4 levels ([1]; 48 h): about 50% | level of InsP6 ([1]; 48 h): no change | IP6 levels ([1]; 72 h): did not change; also recorded: does not decrease | InsP4 levels ([1]; 72 h): rose slightly | InsP7 levels ([1]; 72 h): did not change; also recorded: does not decrease | AKT P-Ser-473 signal intensity compared to DMSO ([2]; 10 μM): ns | AKT P-Thr-308 signal intensity compared to DMSO ([2]; 10 μM): ns | AKT P-Ser-473 signal intensity compared to DMSO ([2]; 30 μM): ns | AKT P-Thr-308 signal intensity compared to DMSO ([2]; 30 μM): ns | AKT P-Ser-473 signal intensity compared to DMSO ([2]; 50 μM): ns | AKT P-Thr-308 signal intensity compared to DMSO ([2]; 50 μM): ns | cytosolic AKT phosphorylation ([2]; after 48 h of treatment as printed in text): did not detect any changes | inhibition at 1 µM (AKT1): 7.4% | inhibition at 1 µM (CDK2): 1.6% | inhibition at 1 µM (CaMK4): -4% | inhibition at 1 µM (Erk2): -2.2% | inhibition at 1 µM (FGFR1): 40.5% | inhibition at 1 µM (JNK2): 7.7% | inhibition at 1 µM (KDR): ≥ 75% | inhibition at 1 µM (MST1): 51% | inhibition at 1 µM (ROCK1): 6.1% | inhibition at 1 µM (SRC): 18.4% | inhibition at 1 µM (SYK): -13% | inhibition at 1 µM (TRKA): 35.9%
